Measured values as given in patent US20140288185A1, “NICOTINIC RECEPTOR NON-COMPETITIVE MODULATORS” (Targacept, Inc., priority 2011, published 2014).
Read-outs that look alike come from different tables or passages of the source.

What was measured:
Nicotinic, human α3β4 = molecular target: T1, Nicotinic, human α3β4 (Homo sapiens, UniProt P30926+P32297); experiment: Competition binding, human α3β4 nicotinic receptor (CHO human α3β4 membranes)
T1 construct: host or cells: CHO
Method: (§1) CHO-human α3β4 cells (obtained from ChanTest, Cleveland, Ohio, catalog #CT6021) were maintained in proliferative growth phase in Ham's F12 (VWR) with 10% fetal bovine serum (Invitrogen), 0.25 mg/mL geneticin; 0.4 mg/ml zeocin. The amino acid sequences encoded by the transfected cDNA constructs used to generate the CHO-human α3β4 cells are identical to the translated sequences for GenBank accession numbers NM_000743.2 and NM_000750.3, respectively.
(§2) Cells were harvested in ice-cold PBS, pH 7.4, then homogenized with a Polytron (Kinematica GmbH, Switzerland). Homogenates were centrifuged at 40,000 g for 20 minutes (4° C.). The pellet was re-suspended in PBS and protein concentration determined using the Pierce BCA Protein Assay kit (Pierce Biotechnology, Rockford, Ill.).
(§3) Binding to nicotinic receptors was assayed on membranes using standard methods adapted from published procedures (Lippiello and Fernandes 1986; Davies et al., 1999). In brief, membranes were reconstituted from frozen stocks and incubated for 2 h on ice in 150 μl assay buffer (50 mM Tris, 154 mM NaCl, pH 7.4) in the presence of competitor compound (0.001 nM to 100 μM) and radioligand. [^3H]-nicotine (L-(−)-[N-methyl-^3H]-nicotine, 69.5 Ci/mmol, Perkin-Elmer Life Sciences, Waltham, Mass.) was used for human α4β2 binding studies. [^3H]-epibatidine (52 Ci/mmol, Perkin-Elmer Life Sciences) was used for binding studies at the other nicotinic receptor subtypes. Incubation was terminated by rapid filtration on a multimanifold tissue harvester (Brandel, Gaithersburg, Md.) using GF/B filters presoaked in 0.33% polyethyleneimine (w/v) to reduce non-specific binding. Filters were washed 3 times with ice-cold assay buffer and the retained radioactivity was determined by liquid scintillation counting.
(§4) Binding data were expressed as percent total control binding. Replicates for each point were averaged and plotted against the log of drug concentration. The IC50 (concentration of the compound that produces 50% inhibition of binding) was determined by least squares non-linear regression using GraphPad Prism software (GraphPAD, San Diego, Calif.). Ki was calculated using the Cheng-Prusoff equation (Cheng and Prusoff, 1973).

human α4β2 (HS) = human α4β2 (HS) (Homo sapiens, UniProt P17787+P43681); experiment: Calcium flux inhibition, SH-EP1-human α4β2 treated at 29° C. (HS); assay type: cell-based
Method: (§5) SH-EP1-human α4β2 (Eaton et al., 2003), cell lines were obtained from Dr. Ron Lukas (Barrow Neurological Institute). Cells were maintained in proliferative growth phase in Dulbecco's modified Eagle's medium (Invitrogen, Carlsbad, Calif.) with 10% horse serum (Invitrogen), 5% fetal bovine serum (HyClone, Logan Utah), 1 mM sodium pyruvate, 4 mM L-glutamine. For maintenance of stable transfectants, the α4β2 cell media was supplemented with 0.25 mg/mL zeocin and 0.13 mg/mL hygromycin B.
(§6) Forty-eight hours prior to each experiment, cells were plated in 96 well black-walled, clear bottom plates (Corning, Corning, N.Y.) at 60-100,000 cells/well. On the day of the experiment, growth medium was gently removed, 200 μL 1×FLIPR Calcium 4 Assay reagent (Molecular Devices, Sunnyvale, Calif.) in assay buffer (20 mM HEPES, 7 mM TRIS base, 4 mM CaCl2, 5 mM D-glucose, 0.8 mM MgSO4, 5 mM KCl, 0.8 mM MgCl2, 120 mM N-methyl D-glucamine, 20 mM NaCl, pH 7.4 for SH-EP1-human α4β2 cells or 10 mM HEPES, 2.5 mM CaCl2, 5.6 mM D-glucose, 0.8 mM MgSO4, 5.3 mM KCl, 138 mM NaCl, pH 7.4 with TRIS-base for all other cell lines) was added to each well and plates were incubated at 37° C. for 1 hour (29° C. for the 29° C.-treated SH-EP1-human α4β2 cells). For inhibition studies, competitor compound (10 pM-10 μM) was added at the time of dye addition. The plates were removed from the incubator and allowed to equilibrate to room temperature. Plates were transferred to a FLIPR Tetra fluorometric imaging plate reader (Molecular Devices) for addition of compound and monitoring of fluorescence (excitation 485 nm, emission 525 nm). The amount of calcium flux was compared to both a positive (nicotine) and negative control (buffer alone). The positive control was defined as 100% response and the results of the test compounds were expressed as a percentage of the positive control. For inhibition studies, the agonist nicotine was used at concentrations of 1 μM for SH-EP1-human α4β2 treated at 29° C. (HS), 10 μM for SH-EP1-human α4β2 maintained at 37° C. (LS), and 20 μM for SH-SY5Y cells or CHO_human α3β4.

human α3β4 = molecular target: T2, human α3β4 (Homo sapiens, UniProt P30926+P32297); experiment: Calcium flux inhibition, CHO-human α3β4 cells; assay type: cell-based
T2 construct: host or cells: CHO
Method: as §1, §6

Nicotinic, human α4β2 = Nicotinic, human α4β2 (Homo sapiens, UniProt P17787+P43681); experiment: Competition binding, human α4β2 nicotinic receptor ([3H]nicotine)
Method: as §5, §2, §3, §4

human α4β2 (LS) = human α4β2 (LS) (Homo sapiens, UniProt P17787+P43681); experiment: Calcium flux inhibition, SH-EP1-human α4β2 maintained at 37° C. (LS); assay type: cell-based; conditions: for Emax: read-out: Human α4β2 Ca Flux Imax [37C/HS]
Method: as §5
as §6, with “For inhibition studies, the agonist nicotine was used at concentrations of 1 μM for SH-EP1-human α4β2 treated at 29° C. (HS), 10 μM for SH-EP1-human α4β2 maintained at 37° C.” left out

[1] = molecular target: T3, Human Ganglion (SH-SY5Y cells) (Homo sapiens, UniProt P30532+P30926+P32297); experiment: Calcium flux inhibition, human ganglion (SH-SY5Y cells); assay type: cell-based
T3 construct: endogenous in cells; host or cells: SH-SY5Y human neuroblastoma cells
Method: as §6

Nicotinic, human α3β4α5 = molecular target: T4, Nicotinic, human α3β4α5 (Homo sapiens, UniProt P30532+P30926+P32297); experiment: Competition binding, human ganglion nicotinic receptor (SH-SY5Y membranes)
T4 construct: endogenous in cells; host or cells: SH-SY5Y human neuroblastoma cells
Method: as §2, §3, §4

[2] = CHO Human α3β4 membranes, [3H]epibatidine 1 nM, read-out: Human CHO α3β4 Ki
[3] = 29° C.-treated cells (HS), nicotine 1 μM
[4] = 29° C.-treated cells (HS), nicotine 1 μM, read-out: Human α4β2 Ca Flux IC50 [29C/HS]
[5] = nicotine 20 μM, read-out: Human CHO α3β4 Ca Flux IC50
[6] = SH-EP1-Human α4β2 cell membranes, [3H]nicotine 2 nM, read-out: Human α4β2 Ki
[7] = cells maintained at 37° C. (LS), nicotine 10 μM, read-out: Human α4β2 Ca Flux IC50 [37C/LS]
[8] = cells maintained at 37° C., nicotine 10 μM
[9] = SH-SY5Y cells, nicotine 20 μM, read-out: Human Ganglion Ca Flux IC50

| SMILES | Ki (Nicotinic, human α3β4; [2]) [nM] | Human α4β2 Ca Flux Imax [29C/HS] (human α4β2 (HS); [3]) [% inh] | IC50 (human α4β2 (HS); [4]) [nM] | Human CHO α3β4 Ca Flux Imax (human α3β4; nicotine 20 μM) [% inh] | IC50 (human α3β4; [5]) [nM] | Ki (Nicotinic, human α4β2; [6]) [nM] | IC50 (human α4β2 (LS); [7]) [nM] | Emax (human α4β2 (LS); [8]) [%] | Human Ganglion Ca Flux Imax ([1]; SH-SY5Y cells, nicotine 20 μM) [% inh] | IC50 [1, 9] [nM] | IC50 (human α4β2 (HS)) [nM] | IC50 (human α3β4) [nM] | Ki (Nicotinic, human α4β2) [nM] | IC50 (human α4β2 (LS)) [nM] | Emax (human α4β2 (LS)) [%] | Ki (Nicotinic, human α3β4) [nM] | Ki (Nicotinic, human α3β4α5) [nM] | Ki (Nicotinic, human α3β4α5; SH-SY5Y cell membranes (α3β4α5), [3H]epibatidine 1 nM, read-out: Human Ganglion Ki) [nM] | IC50 [1] [nM] |
| --- | --- | --- | --- | --- | --- | --- | --- | --- | --- | --- | --- | --- | --- | --- | --- | --- | --- | --- | --- |
| CN(C)[C@]12CCC[C@H]1[C@@H]1CC[C@H]2C1 | 16000 | 99 | 410 | 97 | 230 | 47000 | 410 | 98 |  |  |  |  |  |  |  |  |  |  |  |
| CN[C@]12CCC[C@H]1[C@@H]1CC[C@H]2C1 |  | 96 |  | 97 |  |  |  |  | 95 | 380 | 550 | 490 | 33000 | 340 | 96 |  |  |  |  |
| CN(C)[C@@]12CCC[C@@H]1[C@H]1CC[C@@H]2C1 | 13000 | 96 | 510 | 96 | 190 | 20000 | 500 | 98 |  |  |  |  |  |  |  |  |  |  |  |
| CC[C@@]12CCC[C@]1(N(C)C)[C@H]1CC[C@@H]2C1 | 91000 |  |  | 95 | 240 | 33000 | 710 |  |  |  |  |  |  |  | 98 |  |  |  |  |
| CC[C@]12CCC[C@@]1(N(C)C)[C@@H]1CC[C@H]2C1 | 70000 |  |  | 96 | 200 | 64000 | 370 |  |  |  |  |  |  |  | 99 |  |  |  |  |
| CN[C@@]12CCC[C@@H]1[C@H]1CC[C@@H]2C1 |  | 97 |  | 97 |  |  |  |  | 95 | 490 | 380 | 660 | 51000 | 380 | 96 | 80000 | 70000 |  |  |
| CNC12CCCC1(CO)C1CCC2C1 (stereo not drawn) |  | 99 | 370 |  |  | 31000 | 380 | 90 | 91 | 200 |  |  |  |  |  |  |  | 89000 |  |
| CCC12CCCC1(NC)C1CCC2C1 (stereo not drawn) |  | 100 |  | 97 |  |  |  |  | 98 | 20 | 430 | 220 | 34000 | 170 | 97 | 75000 |  |  |  |
| CCCCC12CCCC1(NC)C1CCC2C1 (stereo not drawn) | 74000 | 99 | 460 | 96 | 300 | 73000 | 140 |  | 93 |  |  |  |  |  | 96 |  |  |  | 24 |
| CC[C@]12CCC[C@@]1(NC)[C@@H]1CC[C@H]2C1 |  | 100 |  | 97 |  |  |  |  |  |  | 510 | 120 | 32000 | 6900 | 94 | 53000 |  |  |  |
| CCCC12CCCC1(NC)C1CCC2C1 (stereo not drawn) |  | 100 |  | 96 |  |  |  |  | 98 | 30 | 210 | 130 | 29000 | 170 | 96 | 73000 | 52000 |  |  |
| [2H]C([2H])NC12CCCC1(C([2H])([2H])[2H])C1CCC2C1 (stereo not drawn) |  |  |  |  |  | 26000 | 76 | 95 | 99 | 83 |  |  |  |  |  |  |  |  |  |
| C[N+](C)(C)[C@]12CCC[C@H]1[C@@H]1CC[C@H]2C1 | 13000 |  |  |  |  | 8600 | 380 | 100 | 97 | 1800 |  |  |  |  |  |  |  |  |  |
| C[N+](C)(C)[C@@]12CCC[C@@H]1[C@H]1CC[C@@H]2C1 |  |  |  | 94 | 940 | 6900 | 260 | 98 |  |  |  |  |  |  |  |  |  |  |  |
